# Target: T1, human capsaicin receptor (Homo sapiens, UniProt Q8NER1)
# T1 construct: expression consrtuct encoding the full length human capsaicin receptor; expressed in transfected cells
# Experiment: Antagonist assay for Capsaicin receptor mediated calcium mobilization
# Assay type: cell-based
# Conditions: Table III, read-out: EC50 (the source's name)
# Experimental: Calcium Mobilization Assay
# Cells transfected with expression plasmids (as described in Example 10) and thereby expressing the human capsaicin receptor are seeded and grown to 70-90% confluency in FALCON black-walled, clear-bottomed 96-well plates (#3904, BECTON-DICKINSON, Franklin Lakes, N.J.) . The culture media are emptied from the 96 well plates and FLUO-3 AM calcium sensitive dye (Molecular Probes, Eugene, OR) is added to each well (dye solution: 1 mg FLUO-3 AM, 440 uL DMSO and 440 ul 20% pluronic acid in DMSO, diluted 1:4, 50 ul diluted solution per well). Plates are covered with aluminum foil and incubated at 37° C for 1-2 hours in an environment containing 5% CO2. After the incubation the dye is emptied from the plates, and the cells are washed once with Krebs-Ringer HEPES (KRH) buffer (25 mM HEPES, 5 mM KCl, 0.96 mM NaH2PO4, 1 MM MgSO4, 2 mM CaCl2, 5 mM glucose, 1 mM probenecid, pH 7.4), and resuspended in KRH buffer.
# Agonist (e.g., olvanil, capsaicin, or RTX)-induced calcium mobilization is monitored using either FLUOROSKAN ASCENT (Labsystems, Franklin, Mass.) or FLIPR (fluorometric imaging plate reader system, Molecular Devices, Sunnyvale, Calif.) instruments. Similarly, varying concentrations of the antagonists ruthenium red or capsazepine are added to cells concurrently with agonist (e.g., 25-50 nM capsaicin). For agonist-induced calcium responses, data obtained between 30 and 60 seconds after agonist application are used to generate the EC50 values. […] software (Synergy Software, Reading, Pa.) was utilized to fit the data to the equation: […]
# to determine the EC50 for the response. In this equation, y is the maximum fluorescence signal, x is the concentration of the agonist or antagonist, a is the Emax, b corresponds to the EC50 or IC50 value, and finally, c is the Hill coefficient.
# Assay for Determination of Capsaicin Receptor Antagonist Effects
# In order to measure the ability of a test compound to antagonize (inhibit) the response of cells expressing capsaicin receptors to capsaicin or other vanilloid agonist, the EC50 of capsaicin is first determined.
# An additional 20 ul of KRH buffer and 1 ul DMSO is added to each well of cells, prepared as described above. 100 ul capsaicin in KRH buffer is automatically transferred by the FLIPR instrument to each well.
# Test compounds are dissolved in DMSO, diluted in 20 ul KRH buffer so that the final concentration of test compounds in the assay well is between 1 uM and 5 uM, and added to cells prepared as described above. The 96 well plates containing prepared cells and test compounds are incubated in the dark, at room temperature for 0.5-6 hours. It is important that the incubation not continue beyond 6 hours. Just prior to determining the fluorescence response, 100 ul capsaicin in KRH buffer at twice the EC50 concentration determined from the concentration response curve is automatically added by the FLIPR instrument to each well of the 96 well plate for a final sample volume of 200 ul and a final capsaicin concentration equal to the EC50. The final concentration of test compounds in the assay wells is between 1 uM and 5 uM. […] Antagonists of the capsaicin receptor decrease this response by about 20%, preferably by about 50%, and most preferably by at least 80% as compared to matched control. The concentration of antagonist required to provide a 50% decrease is the EC50 for the antagonist (also referred to as the IC50).
# T1 sequence (Q8NER1 whole entry): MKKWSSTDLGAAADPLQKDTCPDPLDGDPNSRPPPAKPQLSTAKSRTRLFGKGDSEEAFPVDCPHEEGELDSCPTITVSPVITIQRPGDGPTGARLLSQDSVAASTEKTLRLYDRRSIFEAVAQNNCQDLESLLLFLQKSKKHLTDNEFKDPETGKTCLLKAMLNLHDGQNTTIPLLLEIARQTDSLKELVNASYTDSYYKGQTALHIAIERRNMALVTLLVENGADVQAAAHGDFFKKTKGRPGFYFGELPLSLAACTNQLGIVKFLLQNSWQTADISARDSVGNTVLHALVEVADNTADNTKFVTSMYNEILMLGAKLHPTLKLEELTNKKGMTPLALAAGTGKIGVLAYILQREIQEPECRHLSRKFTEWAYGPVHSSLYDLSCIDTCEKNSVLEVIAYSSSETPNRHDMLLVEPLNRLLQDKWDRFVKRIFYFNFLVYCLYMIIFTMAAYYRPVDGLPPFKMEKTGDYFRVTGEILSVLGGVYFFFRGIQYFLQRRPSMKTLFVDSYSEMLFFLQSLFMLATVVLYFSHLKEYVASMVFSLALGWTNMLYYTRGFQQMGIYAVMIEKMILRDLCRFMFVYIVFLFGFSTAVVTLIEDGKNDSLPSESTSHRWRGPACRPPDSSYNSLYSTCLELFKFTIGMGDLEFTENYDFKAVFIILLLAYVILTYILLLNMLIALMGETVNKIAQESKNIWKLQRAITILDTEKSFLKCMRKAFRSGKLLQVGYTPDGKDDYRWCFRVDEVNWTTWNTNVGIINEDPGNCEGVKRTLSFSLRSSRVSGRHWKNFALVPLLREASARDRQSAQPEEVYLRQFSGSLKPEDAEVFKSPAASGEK
row,Structure (SMILES),IC50
1,"C[C@@H]1CN(c2ncccc2C(F)(F)F)CCN1C(=O)Nc1ccc(C2CCCC2)cc1 [Compound 37, (2R)-N-(4-cyclopentylphenyl)-2-methyl-4-[3-(trifluoromethyl)pyridin-2-yl]piperazine-1-carboxamide]",< 1 µM
2,"C[C@@H]1CN(c2nccc3ccccc23)CCN1C(=O)Nc1ccc(C(F)(F)F)cc1 [Compound 38, (2R)-4-isoquinolin-1-yl-2-methyl-N-[4-(trifluoromethyl)phenyl]piperazine-1-carboxamide]",< 1 µM
3,C[C@@H]1CN(c2ncccc2N(C)C)CCN1C(=O)Nc1ccc(C(F)(F)F)cc1 [Compound 44],< 1 µM
4,"COc1cccnc1N1CCN(C(=O)Nc2ccc(C(C)(C)C)cc2)[C@H](C)C1 [Compound 45, (2R)-N-(4-tert-butylphenyl)-4-(3-methoxypyridin-2-yl)-2-methylpiperazine-1-carboxamide]",< 1 µM
5,"C[C@@H]1CN(c2ncccc2C(F)(F)F)CCN1C(=O)Nc1ccc(C2(O)CCOCC2)cc1 [Compound 51, (2R)-N-[4-(4-hydroxytetrahydro-2H-pyran-4-yl)phenyl]-2-methyl-4-[3-(trifluoromethyl)pyridin-2-yl]piperazine-1-carboxamide]",< 1 µM
6,"COCC(C)(C)c1ccc(NC(=O)N2CCN(c3ncccc3C(F)(F)F)C[C@H]2C)cc1 [Compound 55, (2R)-N-[4-(2-methoxy-1,1-dimethylethyl)phenyl]-2-methyl-4-[3-(trifluoromethyl)pyridin-2-yl]piperazine-1-carboxamide]",< 1 µM
7,"C[C@@H]1CN(c2ncccc2Cl)CCN1C(=O)Nc1ccc(C(C)(C)C#N)cc1 [Compound 56, (2R)-4-(3-chloropyridin-2-yl)-N-[4-(1-cyano-1-methylethyl)phenyl]-2-methylpiperazine-1-carboxamide]",< 1 µM
8,"C[C@@H]1CN(c2ncccc2C(F)(F)F)CCN1C(=O)Nc1ccc(C(C)(C)C#N)cc1 [Compound 57, (2R)-N-[4-(1-cyano-1-methylethyl)phenyl]-2-methyl-4-[3-(trifluoromethyl)pyridin-2-yl]piperazine-1-carboxamide]",< 1 µM
9,"CCC1CN(c2ncccc2Cl)CCN1C(=O)Nc1ccc(C(F)(F)F)cc1 (stereo not drawn) [Compound 59, 4-(3-chloropyridin-2-yl)-2-ethyl-N-[4-(trifluoromethyl)phenyl]piperazine-1-carboxamide]",< 1 µM
10,"CCC1CN(c2ncccc2Cl)CCN1C(=O)Nc1ccc(C(C)C)cc1 (stereo not drawn) [Compound 60, 4-(3-chloropyridin-2-yl)-2-ethyl-N-[4-isopropylphenyl)piperazine-1-carboxamide]",< 1 µM
11,"CCC1CN(c2ncccc2C(F)(F)F)CCN1C(=O)Nc1ccc(C(C)(C)C)cc1 (stereo not drawn) [Compound 61, N-(4-tert-butylphenyl)-2-ethyl-4-[3-(trifluoromethyl)pyridin-2-yl]piperazine-1-carboxamide]",< 1 µM
12,"CCC1CN(c2ncccc2C(F)(F)F)CCN1C(=O)Nc1ccc(C(F)(F)F)cc1 (stereo not drawn) [Compound 62, 2-ethyl-N-[4-(trifluoromethyl)phenyl]-4-[3-(trifluoromethyl)pyridin-2-yl]piperazine-1-carboxamide]",< 1 µM
13,"CCC1CN(c2ncccc2C(F)(F)F)CCN1C(=O)Nc1ccc(C(C)C)cc1 (stereo not drawn) [Compound 63, 2-ethyl-N-(4-isopropylphenyl)-4-[3-(trifluoromethyl)pyridin-2-yl]piperazine-1-carboxamide]",< 1 µM
14,"CC(C)(C)C1CN(c2ncccc2C(F)(F)F)CCN1C(=O)Nc1ccc(C(F)(F)F)cc1 (stereo not drawn) [Compound 68, 2-tert-butyl-N-[4-(trifluoromethyl)phenyl]-4-[3-(trifluoromethyl)pyridin-2-yl]piperazine-1-carboxamide]",< 1 µM

# The next lines start with the values.
row,IC50,Structure (SMILES)
1,< 1 µM,"CC1CN(c2ncccc2Cl)CC(C)N1C(=O)Nc1ccc(C2CCCCC2)cc1 (stereo not drawn) [Compound 35, 4-(3-chloropyridin-2-yl)-N-(4-cyclohexylphenyl) 2,6-dimethylpiperazine-1-carboxamide]"
2,< 1 µM,"C[C@@H]1CN(c2ncccc2Cl)CCN1C(=O)Nc1ccc(C2CCCC2)cc1 [Compound 36, (2R)-4-(3-chloropyridin-2-yl)-N-(4-cyclopentylphenyl)-2-methylpiperazine-1-carboxamide]"
3,< 1 µM,"C[C@@H]1CN(c2nccc3ccccc23)CCN1C(=O)Nc1ccc(C(C)(C)C)cc1 [Compound 39, (2R)-N-(4-tert-butylphenyl)-4-isoquinolin-1-yl-2-methylpiperazine-1-carboxamide]"
4,< 1 µM,"CC(C)c1ccc(NC(=O)N2CCN(c3nccc4ccccc34)C[C@H]2C)cc1 [Compound 40, (2R)-N-(4-isopropylphenyl)-4-isoquinolin-1-yl-2-methylpiperazine-1-carboxamide]"
5,< 1 µM,"C[C@@H]1CN(c2nccc3ccccc23)CCN1C(=O)Nc1ccc(C2CCCC2)cc1 [Compound 41, (2R)-N-(4-cyclopentylphenyl)-4-isoquinolin-1-yl-2-methylpiperazine-1-carboxamide]"
6,< 1 µM,"C[C@@H]1CN(c2nccc3ccccc23)CCN1C(=O)Nc1ccc(C2CCCCC2)cc1 [Compound 42, (2R)-N-(4-cyclohexylphenyl)-4-isoquinolin-1-yl-2-methylpiperazine-1-carboxamide]"
7,< 1 µM,"C[C@@H]1CN(c2ncccc2N(C)C)CCN1C(=O)Nc1ccc(C(C)(C)C)cc1 [Compound 43, (2R)-N-(4-tert-butylphenyl)-4-[3-(dimethylamino)pyridin-2-yl]-2-methylpiperazine-1-carboxamide]"
8,< 1 µM,"COc1cccnc1N1CCN(C(=O)Nc2ccc(C3CCCCC3)cc2)[C@H](C)C1 [Compound 47, (2R)-N-(4-cyclohexylphenyl)-4-(3-methoxypyridin-2-yl)-2-methylpiperazine-1-carboxamide]"
9,< 1 µM,"C[C@@H]1CN(c2ncccc2Cl)CCN1C(=O)Nc1ccc(C2=CCOCC2)cc1 [Compound 48, (2R)-4-(3-chloropyridin-2-yl)-N-[4-(3,6-dihydro-2H-pyran-4-yl)phenyl]-2-methylpiperazine-1-carboxamide]"
10,< 1 µM,"C[C@@H]1CN(c2ncccc2Cl)CCN1C(=O)Nc1ccc(C2CCOCC2)cc1 [Compound 49, (2R)-4-(3-chloropyridin-2-yl)-2-methyyl-N-(4-tetrahydro-2H-pyran-4-ylphenyl)piperazne-1-carboxamide]"
11,< 1 µM,"C[C@@H]1CN(c2ncccc2Cl)CCN1C(=O)Nc1ccc(C2(O)CCOCC2)cc1 [Compound 50, (2R)-4-(3-chloropyridin-2-yl)-N-[4-(4-hydroxytetrahydro-2H-pyran-4-yl)phenyl]-2-methylpiperazine-1-carboxamide]"
12,< 1 µM,"Cc1nc(-c2ccc(NC(=O)N3CCN(c4ncccc4Cl)C[C@H]3C)cc2)cs1 [Compound 52, (2R)-4-(3-chloropyridin-2-yl)-2-methyl-N-[4-(2-methyl-1,3-thiazol-4-yl)phenyl]piperazine-1-carboxamide]"
13,< 1 µM,"CCc1nc(-c2ccc(NC(=O)N3CCN(c4ncccc4Cl)C[C@H]3C)cc2)cs1 [Compound 53, (2R)-4-(3-chloropyridin-2-yl)-N-[4-(2-ethyl-1,3-thiazol-4-yl)phenyl]-2-methylpiperazine-1-carboxamide]"
14,< 1 µM,"COCC(C)(C)c1ccc(NC(=O)N2CCN(c3ncccc3Cl)C[C@H]2C)cc1 [Compound 54, (2R)-4-(3-chloropyridin-2-yl)-N-[4-(2-methoxy-1,1-dimethylethyl)phenyl]-2-methylpiperazine-1-carboxamide]"
15,< 1 µM,"CCC1CN(c2ncccc2Cl)CCN1C(=O)Nc1ccc(C(C)(C)C)cc1 (stereo not drawn) [Compound 58, N-(4-tert-butylphenyl)-4-(3-chloropyridin-2-yl)-2-ethylpiperazine-1-carboxamide]"
16,< 1 µM,"CC(C)(C)c1ccc(NC(=O)N2CCN(c3ncccc3Cl)CC2C(C)(C)C)cc1 (stereo not drawn) [Compound 64, 2-tert-butyl-N-(4-tert-butylphenyl)-4-(3-chloropyridin-2-yl)piperazine-1-carboxamide]"

# — patent US20020132853A1, “Capsaicin receptor ligands” (priority 2000, published 2002)
